The source of these data is ChEMBL document CHEMBL4017548, “Molecular Hybridization of Potent and Selective γ-Hydroxybutyric Acid (GHB) Ligands: Design, Synthesis, Binding Studies, and Molecular Modeling of Novel 3-Hydroxycyclopent-1-enecarboxylic Acid (HOCPCA) and trans-γ-Hydroxycrotonic Acid (T-HCA) Analogs” (J Med Chem, 2017).

Bounds are passed on as bounds.

One may read the Ki as the dissociation constant of the complex between target and ligand, obtained from inhibition or displacement. Read a high Ki as lower affinity. By pKi is commonly meant −log10 of the Ki, conventionally taken in molar units.

The nature of the test: Displacement of [3H]NCS-382 from GHB binding site in Sprague-Dawley rat brain synaptosomal membranes after 1 hr by scintillation counting method. Background: Displacement assays read how much labelled ligand stays bound in the presence of the test substance.

Compound `O=C(O)C1=CCCC1` showed an inhibition constant Ki of 31 µM and a pKi of 4.51.
On the same counts, the results for `O=C(O)C#CCO` are 4.3 µM and 5.5.
On the same counts, the results for `O=C(O)C1=CC(O)CC1` (stereo not drawn) are 0.13 to 0.16 µM and 6.89.
`O=C(O)/C=C/C1(O)CCCCC1` returned an inhibitory constant (Ki) of 4.3 µM and a pKi of 5.37.
On the same counts, the results for `O=C(O)C1=C(c2ccc(Cl)cc2)C(O)CC1` (stereo not drawn) are 70 µM and 4.16.
The like results for `O=C(O)C#CC1(O)CCC1` were, in that order, 1.6 µM and 5.78.
On to `COc1ccc(C2=C(C(=O)O)CCC2O)cc1` (stereo not drawn), for which the inhibition constant Ki was over 300 µM.
For the compound `O=C(O)C1=CC(c2ccccc2)CC1` (stereo not drawn), the inhibition constant (Ki) amounted to 16 µM and the pKi came out at 4.8.
`O=C(O)C1=CC(c2ccc(OCc3ccccc3)cc2)CC1` (stereo not drawn) came in with a Ki of 1.6 µM and a pKi of 5.77.
Regarding `CCC1=C(C(=O)O)CCC1O` (stereo not drawn), the inhibition constant Ki is over 300 µM.
Regarding `O=C(O)C1=CC(c2ccc(-c3ccccc3)cc2)CC1` (stereo not drawn), the affinity corresponds to a Ki of 3.2 µM and the negative logarithm of the Ki (pKi) worked out at 5.49.
For the compound `O=C(O)C1=C[C@H](O)CC1`, the affinity, expressed as Ki, was 0.11 µM.
Turning to `O=C(O)[C@@H]1CC[C@@](O)(c2ccccc2)C1`, the Ki turned out to be 53 µM and the pKi is recorded as 4.28.
`O=C(O)C1=C(c2ccccc2)C(O)CC1` (stereo not drawn) came in with an inhibitory constant (Ki) of 48 µM and a pKi of 4.32.
Consider `O=C(O)C#CC1(O)CCCCC1`, for which the inhibition constant (Ki) worked out at 7.7 µM and the pKi is 5.12.
The compound `O=C(O)C1=C(Cc2ccccc2)C(O)CC1` (stereo not drawn) returned a Ki of 38 µM and a negative-log Ki (pKi) of 4.43.
The like results for `O=C(O)C1CC(O)C1` (stereo not drawn) were, in that order, 70 µM and 4.16.
`Cc1ccc(C2=C(C(=O)O)CCC2O)cc1` (stereo not drawn) gave an inhibitory constant (Ki) of 157 µM and a pKi of 3.81.
Turning to `O=C(O)/C=C/C1(O)CCCC1`, the Ki was 3.1 µM and the negative-log Ki (pKi) was 5.51.
As to `O=C(O)C1=C(c2ccc(Cl)c(Cl)c2)C(O)CC1` (stereo not drawn), affinity was put at a Ki of 62 µM and the pKi stood at 4.21.
Consider `O=C(O)/C=C/C(O)c1ccc(OCc2ccccc2)cc1` (stereo not drawn), for which the inhibition constant Ki came to 0.043 µM and the pKi was determined as 7.43.
On the same counts, the results for `COc1cccc(CC2=C(C(=O)O)CCC2O)c1` (stereo not drawn) are 46 µM and 4.43.
In turn, `O=C(O)C1=CC(c2ccccc2O)CC1` (stereo not drawn) registered an inhibition constant Ki of 4.6 µM and a negative logarithm of the Ki (pKi) of 5.34.
On the same counts, the results for `CC1=C(C(=O)O)CCC1O` (stereo not drawn) are 80 µM and 4.1.
The compound `O=C(O)C1=C[C@@H](O)CC1` returned an inhibition constant Ki of 1.4 µM.
`O=C(O)C#CC1(O)CCCC1` showed an inhibition constant Ki of 2.7 µM and a negative logarithm of the Ki (pKi) of 5.57.
`O=C(O)[C@@H]1CC[C@@](O)(c2ccc(-c3ccccc3)cc2)C1` displayed a Ki of 0.51 µM and a pKi of 6.29.
Take `O=C(O)C1CCC(O)C1` (stereo not drawn): the affinity, expressed as Ki, was 20 µM and the pKi came out at 4.71.
With `O=C(O)/C=C/C(O)c1ccc(OCc2ccc(Br)cc2)cc1` (stereo not drawn), the Ki was 0.023 µM and the negative-log Ki (pKi) amounted to 7.64.
`O=C(O)/C=C/C1(O)CCC1`: the Ki turned out to be 3.5 µM and the pKi is reported as 5.47.
Turning to `C=CCC1=C(C(=O)O)CCC1O` (stereo not drawn), the Ki is over 300 µM.
`O=C(O)/C=C/C(O)c1ccc(CCc2ccccc2)cc1` (racemic): affinity was put at a Ki of 0.042 µM and the pKi was 7.39.
`O=C(O)/C=C/C(O)c1ccc(Cc2ccccc2)cc1` (racemic) showed an inhibitory constant (Ki) of 0.042 µM and a negative-log Ki (pKi) of 7.38.
`O=C(O)C#CC(O)c1ccc(OCc2ccccc2)cc1` (racemic) returned a Ki of 1.6 µM and a pKi of 5.8.
The like results for `O=C(O)/C=C/C(O)c1ccc(-c2ccccc2)cc1` (racemic) were, in that order, 0.075 µM and 7.14.
Consider `O=C(O)C#CC(O)Cc1ccccc1` (racemic), for which the Ki turned out to be 3.5 µM and the negative logarithm of the Ki (pKi) amounted to 5.45.
The compound `O=C(O)[C@@H]1CCC[C@@H](O)C1` (relative stereo) returned a Ki of 28 µM and a pKi of 4.55.
Regarding `O=C(O)[C@H]1CCC[C@@H](O)C1` (relative stereo), affinity was put at a Ki of 35 µM and the pKi stood at 4.45.
`O=C(O)[C@]12CC[C@@H](O)[C@H]1C2` (relative stereo) yielded a Ki of over 100 µM.
On to `O=C(O)/C=C/C(O)c1ccc(Cc2ccccc2)cc1` (single isomer, unassigned; (+)), for which the Ki stood at 0.03 µM and the negative logarithm of the Ki (pKi) is recorded as 7.47.
The like results for `O=C(O)/C=C/C(O)c1ccc(Cc2ccccc2)cc1` (stereo in doubt; (-)-9e) were, in that order, 1.16 µM and 5.97.
On to `O=C(O)CCCO` [OXYBATE], for which the Ki amounted to 3.6 µM and the negative logarithm of the Ki (pKi) amounted to 5.44.
